Test results as given in ChEMBL document CHEMBL1201862, “PubChem BioAssay data set” (2004).
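Exposure lasted 48 hours, with cells grown in 96-well plates and compounds tested at five concentrations. GI50 marks 50% less growth.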 Activity calls are given as the source filed them. Cut-off read from the data, not from the text of the source: active = GI50 up to about 1.1 µM and inactive = higher.

Key:
Test in all cases: growth of human tumour cells (NCI), 48 h
CAKI-1 = test system: CAKI-1
CCRF-CEM = test system: CCRF-CEM
HL-60 = test system: HL-60
OVCAR-4 = test system: OVCAR-4
HOP-92 = test system: HOP-92
NCI-H23 = test system: NCI-H23
MDA-MB-231 = test system: MDA-MB-231
OVCAR-3 = test system: OVCAR-3
MOLT-4 = test system: MOLT-4
RPMI-8226 = test system: RPMI-8226
SW-620 = test system: SW-620
KM12 = test system: KM12
MCF7 = test system: MCF7
A549 = test system: A549
HCT-15 = test system: HCT-15
HOP-62 = test system: HOP-62
SNB-19 = test system: SNB-19
SF-268 = test system: SF-268
SK-OV-3 = test system: SK-OV-3
NCI-H226 = test system: NCI-H226
OVCAR-8 = test system: OVCAR-8
SF-295 = test system: SF-295
HCC 2998 = test system: HCC 2998
SK-MEL-28 = test system: SK-MEL-28
UO-31 = test system: UO-31
MDA-MB-435 = test system: MDA-MB-435
HCT-116 = test system: HCT-116
NCI-H460 = test system: NCI-H460
U-251 = test system: U-251
NCI/ADR-RES = test system: NCI/ADR-RES
HT-29 = test system: HT-29
Hs-578T = test system: Hs-578T
A498 = test system: A498
DU-145 = test system: DU-145
SF-539 = test system: SF-539
M14 = test system: M14
UACC-62 = test system: UACC-62
LOX IMVI = test system: LOX IMVI
IGROV-1 = test system: IGROV-1
Malme-3M = test system: Malme-3M
BT-549 = test system: BT-549
SR = test system: SR
NCI-H522 = test system: NCI-H522
ACHN = test system: ACHN
UACC-257 = test system: UACC-257
TK-10 = test system: TK-10
K562 = test system: K562
PC-3 = test system: PC-3
COLO 205 = test system: COLO 205
SN12C = test system: SN12C
SK-MEL-5 = test system: SK-MEL-5
EKVX = test system: EKVX
RXF 393 = test system: RXF 393
786-0 = test system: 786-0
OVCAR-5 = test system: OVCAR-5
T47D = test system: T47D
MDA-N = test system: MDA-N
SK-MEL-2 = test system: SK-MEL-2
SNB-75 = test system: SNB-75

`CC(OC(C)(C)C)[C@H](NC(=O)OC(C)(C)C)C(=O)O` (stereo partly drawn) was tested, and the GI50 (CAKI-1) was > 100 µM (inactive), the GI50 (CCRF-CEM) was > 100 µM (inactive) and the GI50 (HL-60) was > 100 µM (inactive). The GI50 (OVCAR-4) was > 100 µM (inactive), the GI50 (HOP-92) was > 100 µM (inactive) and the GI50 (NCI-H23) was > 100 µM (inactive). For the same compound, the GI50 (MDA-MB-231) was > 100 µM (inactive), the GI50 (OVCAR-3) was > 100 µM (inactive) and the GI50 (MOLT-4) was > 100 µM (inactive). For the same compound, the GI50 (RPMI-8226) was > 100 µM (inactive), the GI50 (SW-620) was > 100 µM (inactive) and the GI50 (KM12) was > 100 µM (inactive). The GI50 (MCF7) was > 100 µM (inactive), the GI50 (A549) was > 100 µM (inactive) and the GI50 (HCT-15) was over 100 µM. The GI50 (HOP-62) was > 100 µM (inactive), the GI50 (SNB-19) was > 100 µM (inactive) and the GI50 (SF-268) was > 100 µM (inactive). The GI50 (SK-OV-3) was > 100 µM (inactive), the GI50 (NCI-H226) was > 100 µM (inactive) and the GI50 (OVCAR-8) was > 100 µM (inactive). The GI50 (SF-295) was > 100 µM (inactive), the GI50 (HCC 2998) was > 100 µM (inactive) and the GI50 (SK-MEL-28) was > 10 µM (inactive). For the same compound, the GI50 (UO-31) was > 100 µM (inactive), the GI50 (MDA-MB-435) was > 100 µM (inactive) and the GI50 (HCT-116) was > 100 µM (inactive). The GI50 (NCI-H460) was > 100 µM (inactive), the GI50 (U-251) was > 100 µM (inactive) and the GI50 (NCI/ADR-RES) was > 100 µM (inactive). The GI50 (HT-29) was > 100 µM (inactive), the GI50 (Hs-578T) was > 100 µM (inactive) and the GI50 (A498) was > 100 µM (inactive). The GI50 (DU-145) was > 100 µM (inactive), the GI50 (SF-539) was > 100 µM (inactive) and the GI50 (M14) was > 100 µM (inactive). For the same compound, the GI50 (UACC-62) was > 100 µM (inactive), the GI50 (LOX IMVI) was > 100 µM (inactive) and the GI50 (IGROV-1) was > 100 µM (inactive). For the same compound, the GI50 (Malme-3M) was > 100 µM (inactive), the GI50 (BT-549) was > 100 µM (inactive) and the GI50 (SR) was > 100 µM (inactive). For the same compound, the GI50 (NCI-H522) was > 100 µM (inactive), the GI50 (ACHN) was > 100 µM (inactive) and the GI50 (UACC-257) was > 100 µM (inactive). The GI50 (TK-10) was > 100 µM (inactive), the GI50 (K562) was > 100 µM (inactive) and the GI50 (PC-3) was > 100 µM (inactive). For the same compound, the GI50 (COLO 205) was > 100 µM (inactive), the GI50 (SN12C) was > 100 µM (inactive) and the GI50 (SK-MEL-5) was > 100 µM (inactive). For the same compound, the GI50 (EKVX) was > 100 µM (inactive), the GI50 (RXF 393) was > 10 µM (inactive) and the GI50 (786-0) was > 100 µM (inactive). For the same compound, the GI50 (OVCAR-5) was > 100 µM (inactive) and the GI50 (T47D) was > 100 µM (inactive).

With `O=C(/C=C/c1c[nH]c2ccccc12)c1ccccc1O` the GI50 (HL-60) was 13.6 µM (inactive), the GI50 (OVCAR-4) was 10.7 µM (inactive) and the GI50 (HOP-92) was 4.68 µM (inactive). For the same compound, the GI50 (MDA-MB-231) was 3.18 µM (inactive), the GI50 (OVCAR-3) was 5.05 µM (inactive) and the GI50 (MOLT-4) was 7.41 µM (inactive). The GI50 (RPMI-8226) was 9.27 µM (inactive), the GI50 (SW-620) was 18.5 µM (inactive) and the GI50 (KM12) was 11.3 µM (inactive). For the same compound, the GI50 (MCF7) was 3.1 µM (inactive), the GI50 (A549) was 10.5 µM (inactive) and the GI50 (HCT-15) was 9.89 µM. The GI50 (HOP-62) was 14.3 µM (inactive), the GI50 (SNB-19) was 16.5 µM (inactive) and the GI50 (SF-268) was 16.6 µM (inactive). For the same compound, the GI50 (SK-OV-3) was 15.1 µM (inactive), the GI50 (NCI-H226) was 16.7 µM (inactive) and the GI50 (OVCAR-8) was 12.9 µM (inactive). The GI50 (SF-295) was 10.4 µM (inactive), the GI50 (MDA-N) was 5.5 µM (inactive) and the GI50 (HCC 2998) was 11 µM (inactive). For the same compound, the GI50 (SK-MEL-28) was 19.2 µM (inactive), the GI50 (UO-31) was 2.82 µM (inactive) and the GI50 (MDA-MB-435) was 4.88 µM (inactive). For the same compound, the GI50 (HCT-116) was 12.9 µM (inactive), the GI50 (NCI-H460) was 13.2 µM (inactive) and the GI50 (U-251) was 13.4 µM (inactive). For the same compound, the GI50 (HT-29) was 15.1 µM (inactive), the GI50 (Hs-578T) was 22.6 µM (inactive) and the GI50 (A498) was 15.1 µM (inactive). The GI50 (DU-145) was 11.7 µM (inactive), the GI50 (SF-539) was 12.6 µM (inactive) and the GI50 (M14) was 14 µM (inactive). The GI50 (UACC-62) was 8.17 µM (inactive), the GI50 (LOX IMVI) was 5.08 µM (inactive) and the GI50 (IGROV-1) was 3.83 µM (inactive). The GI50 (Malme-3M) was 11.7 µM (inactive), the GI50 (SK-MEL-2) was 3.55 µM (inactive) and the GI50 (BT-549) was 12.4 µM (inactive). For the same compound, the GI50 (NCI-H522) was 7.64 µM (inactive), the GI50 (ACHN) was 12.6 µM (inactive) and the GI50 (UACC-257) was 15.5 µM (inactive). The GI50 (TK-10) was 18.3 µM (inactive), the GI50 (K562) was 5.32 µM (inactive) and the GI50 (SNB-75) was 11.6 µM (inactive). For the same compound, the GI50 (PC-3) was 4.03 µM (inactive), the GI50 (SN12C) was 13.8 µM (inactive) and the GI50 (EKVX) was 5.97 µM (inactive). The GI50 (786-0) was 12.5 µM (inactive), the GI50 (OVCAR-5) was 13.6 µM (inactive) and the GI50 (T47D) was 1.75 µM (inactive).

In the case of `O=C1NC(=S)NC(=O)C1=C/C=C/c1ccc([N+](=O)[O-])cc1`, the GI50 (CAKI-1) is reported as 15.2 µM (inactive), the GI50 (CCRF-CEM) is reported as 2.32 µM (inactive) and the GI50 (HL-60) is reported as 3.71 µM (inactive). For the same compound, the GI50 (OVCAR-4) was 19.8 µM (inactive), the GI50 (HOP-92) was 14.4 µM (inactive) and the GI50 (NCI-H23) was 13.9 µM (inactive). For the same compound, the GI50 (MDA-MB-231) was 18.2 µM (inactive), the GI50 (OVCAR-3) was 14.3 µM (inactive) and the GI50 (MOLT-4) was 3.04 µM (inactive). For the same compound, the GI50 (RPMI-8226) was 7.24 µM (inactive), the GI50 (SW-620) was 4.9 µM (inactive) and the GI50 (KM12) was 38 µM (inactive). For the same compound, the GI50 (MCF7) was 14 µM (inactive), the GI50 (A549) was 21.1 µM (inactive) and the GI50 (HCT-15) was 14.3 µM. The GI50 (HOP-62) was 18.7 µM (inactive), the GI50 (SNB-19) was 17.1 µM (inactive) and the GI50 (SF-268) was 15.2 µM (inactive). For the same compound, the GI50 (SK-OV-3) was 20.2 µM (inactive), the GI50 (NCI-H226) was 19.1 µM (inactive) and the GI50 (OVCAR-8) was 22.1 µM (inactive). The GI50 (SF-295) was 17.3 µM (inactive), the GI50 (MDA-N) was 8.71 µM (inactive) and the GI50 (HCC 2998) was 18.4 µM (inactive). For the same compound, the GI50 (SK-MEL-28) was 3.03 µM (inactive), the GI50 (UO-31) was 18.3 µM (inactive) and the GI50 (MDA-MB-435) was 10.4 µM (inactive). For the same compound, the GI50 (HCT-116) was 17.8 µM (inactive), the GI50 (NCI-H460) was 27 µM (inactive) and the GI50 (U-251) was 4 µM (inactive). The GI50 (NCI/ADR-RES) was 13.1 µM (inactive), the GI50 (HT-29) was 23.8 µM (inactive) and the GI50 (Hs-578T) was 10.7 µM (inactive). The GI50 (DU-145) was 16.1 µM (inactive), the GI50 (SF-539) was 13.8 µM (inactive) and the GI50 (M14) was 15 µM (inactive). The GI50 (UACC-62) was 11 µM (inactive), the GI50 (LOX IMVI) was 6.76 µM (inactive) and the GI50 (IGROV-1) was 12.2 µM (inactive). For the same compound, the GI50 (Malme-3M) was 9.66 µM (inactive), the GI50 (SK-MEL-2) was 16.4 µM (inactive) and the GI50 (BT-549) was 10.6 µM (inactive). For the same compound, the GI50 (ACHN) was 18 µM (inactive), the GI50 (UACC-257) was 12.7 µM (inactive) and the GI50 (TK-10) was 5.45 µM (inactive). For the same compound, the GI50 (K562) was 3.72 µM (inactive), the GI50 (SNB-75) was 19.2 µM (inactive) and the GI50 (PC-3) was 16.9 µM (inactive). For the same compound, the GI50 (COLO 205) was 13.2 µM (inactive), the GI50 (SN12C) was 15.8 µM (inactive) and the GI50 (SK-MEL-5) was 19.3 µM (inactive). The GI50 (EKVX) was 17.9 µM (inactive), the GI50 (RXF 393) was 13.1 µM (inactive) and the GI50 (786-0) was 14.2 µM (inactive). For the same compound, the GI50 (OVCAR-5) was 18.3 µM (inactive) and the GI50 (T47D) was 24.9 µM (inactive).
